Measured values from patent US11208671B2, “Recombinant cell and method of producing itaconic acid” (City University of Hong Kong, priority 2019, dated 2021).

Test system: Methylorubrum extorquens AM1
Assay: Tolerance of the strain to the inhibitory effect of itaconic acid
Assay type: cell-based
Conditions: itaconic acid 10 mM

C=C(CC(=O)O)C(=O)O [itaconic acid]
Tolerance to inhibitory effect of itaconic acid: highly tolerant
